Test results from patent US12240855B2, “Pyrrolopyrazole derivative” (DAIICHI SANKYO COMPANY, LIMITED, priority 2019, dated 2025).

How the values were obtained:
[1] = test system: PTDSS2-KO A375 cell-subcutaneous transplanted model; assay: Test Example 8: Antitumor activity on PTDSS2-KO A375 cell-subcutaneous transplanted model; format: in vivo, female BALB/c-nu/nu mice; details: orally, once daily for 10 successive days (QD×10), test end date
Source text: PTDSS2-KO A375 cells were transplanted to a right subcutaneous axillary portion of female BALB/c-nu/nu mice at a proportion of 1×10^6 cells/head, and when the tumor volume reached 100 to 300 mm^3 (estimated tumor volume (major axis×minor axis×minor axis/2)), mice were divided into groups of 6 each such that there was no difference between groups. The female BALB/c-nu/nu mice were purchased from CHARLES RIVER LABORATORIES JAPAN, INC. The compound of Example 42 was orally administered from the day of grouping, once daily for 10 successive days (QD×10). The tumor volume was measured until the next day of completion of the administration (test end date). 0.5% methylcellulose (MC) was administered to the vehicle control group as the vehicle.
The antitumor activity on PTDSS2-KO A375 cell-subcutaneous transplanted model of Test Example 8 was calculated by the following formula on each test end date. TGI %=(1−TVt/TVc)×100 • TGI: Tumor growth suppression rate • TVt: Group mean tumor volume of compound administration group on test end date • TVc: Group mean tumor volume of vehicle control group on test end date

[2] = test system: PTDSS2 gene-disrupted (PTDSS2-KO) HCT116 cells; assay: cells; details: Homo sapiens, HCT-116, 72 h, read-out: Test Example 3 PTDSS2-KO HCT116 GI50
Method: (§1) McCoy's 5A medium containing 10% bovine serum was used as the culture medium for each cell. […] They were added to each well of 384-well plates at 40 nL/well using an Echo555 (Labcyte Inc.). […] On the day of compound addition (day 0) and 3 days after compound addition (day 3), 10 μL/well of CellTiter-Glo® 2.0 Assay (Promega, #G9242), which is a reagent for ATP measurement, was added to each well, and the amount of luminescence in each well was measured with EnVision. From the amount of luminescence on the day of compound addition (C0) and the amount of luminescence of the compound non-addition group (C3) and compound addition group (T3) after 3 days of culture, cell viability was calculated based on the following formula. Cell viability (%)=[(T3−C0)/(C3−C0)]×100

[3] = test system: Jeko-1 cells; assay: Test Example 7: Cell growth suppression activity 4 (Jeko-1); format: cell-based; details: 72 h; Jeko-1 cells derived from human mantle cell lymphoma, 3 days of culture, ATP measurement (CellTiter-Glo 2.0)
Method: Jeko-1 cells derived from human mantle cell lymphoma were used. […] Jeko-1 cells were purchased from ATCC. Jeko-1 cells were seeded into 96 well plates at 50,000 cells/50 μL/well (day 0). The compound of Example 42 was serially diluted and prepared (10 steps, 30 μM-3 nM) and added to each well of 96 well plates at 50 μL/well. […] Cell viability (%)=[(T3−C0)/(C3−C0)]×100

[4] = test system: NCI-N87 cells; assay: Test Example 5: Cell growth suppression activity 2 (NCI-N87); format: cell-based; details: 168 h; NCI-N87 cells derived from human stomach cancer, 7 days of culture, ATP measurement (CellTiter-Glo 2.0)
Method: NCI-N87 derived from human stomach cancer was used. […] NCI-N87 cells were purchased from ATCC. NCI-N87 cells were seeded into 96 well plates at 5,000 cells/50 μL/well (day −1). The compound of Example 42 was serially diluted and prepared (10 steps, 20 μM-6 nM) and added to each well of 96 well plates at 50 μL/well. […] Cell viability (%)=[(T7−C0)/(C7−C0)]×100

[5] = target: PSS1 (Homo sapiens, UniProt P48651); assay: biochemical
[6] = test system: PTDSS2-KO HCT116 cell-subcutaneous transplanted model; assay: Test Example 4: Antitumor activity on PTDSS2-KO HCT116 cell-subcutaneous transplanted model; format: in vivo, female BALB/c-nu/nu mice; details: oral, QD × 13, test end date
Source text: HCT116 cell-subcutaneous transplanted model PTDSS2-KO HCT116 cells were transplanted to a right subcutaneous axillary portion of female BALB/c-nu/nu mice at a proportion of 1×10^7 cells/head, and when the tumor volume reached 100 to 300 mm^3 (estimated tumor volume (major axis×minor axis×minor axis/2)), mice were divided into groups of 6 or 5 mice each such that there was no difference between groups. The female BALB/c-nu/nu mice were purchased from CHARLES RIVER LABORATORIES JAPAN, INC. The compounds of Examples 58, 57, 53, 30, 42, 32, 34, 33, and 31 were orally administered from the day of grouping in the dosing schedule shown in Table 12 (twice daily, 11 successive days (BID×11), or once daily, 13 successive days (QD×13)). The tumor volume was measured until the next day of completion of the administration (test end date). 0.5% methylcellulose (MC) was administered to the vehicle control group as the vehicle.
TGI %=(1−TVt/TVc)×100 • TGI: Tumor growth suppression rate • TVt: Group mean tumor volume of compound administration group on test end date • TVc: Group mean tumor volume of vehicle control group on test end date

[7] = test system: ZR-75-1 cells; assay: Test Example 6: Cell growth suppression activity 3 (ZR-75-1); format: cell-based; details: 144 h; ZR-75-1 cells derived from human breast cancer, 6 days of culture, ATP measurement (CellTiter-Glo 2.0)
Method: ZR-75-1 cells derived from human breast cancer were used. […] ZR-75-1 cells were purchased from ATCC. ZR-75-1 cells were seeded into 96 well plates at 5,000 cells/50 μL/well (day −1). The compound of Example 42 was serially diluted and prepared (10 steps, 20 μM-6 nM) and added to each well of 96 well plates at 50 μL/well. […] Cell viability (%)=[(T6−C0)/(C6−C0)]×100

[8] = test system: HCT116 cells; assay: cells; details: Homo sapiens, HCT-116, 72 h, read-out: Test Example 3 HCT116 GI50
Method: as §1

With `CC(F)(F)CN1C(=O)c2[nH]nc(-c3cccc4[nH]c(=O)oc34)c2[C@@H]1c1ccc(Oc2cc(C(F)(F)F)cc(C(F)(F)F)c2)cc1` [Example 42, (−)-7-[4-{4-[3,5-bis(trifluoromethyl)phenoxy]phenyl}-5-(2,2-difluoropropyl)-6-oxo-1,4,5,6-tetrahydropyrrolo[3,4-c]pyrazol-3-yl]-1,3-benzoxazol-2(3H)-one] the “TGI (%)” value ([1]; Dose 3 mg/kg) was 47%, the “TGI (%)” value ([1]; Dose 10 mg/kg) was 100% and the “TGI (%)” value ([1]; Dose 30 mg/kg) was 100%. For the same compound, the “TGI (%)” value ([1]; Dose 100 mg/kg) was 100%, the GI50 [2] was 14 nM and the GI50 [3] was 417 nM. The GI50 [4] was 7.4 nM, the IC50 [5] was 200 nM and the “TGI (%)” value ([6]; 10 mg/kg) was 97%. For the same compound, the “TGI (%)” value ([6]; 20 mg/kg) was 98%, the “TGI (%)” value ([6]; 40 mg/kg) was 99% and the GI50 [7] was 2900 nM. For the same compound, the GI50 [8] was over 25000 nM.
